Data: ChEMBL document CHEMBL1201862, “PubChem BioAssay data set” (2004)
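48-hour exposure; five concentrations; linearly interpolated endpoints. At the GI50, growth is halved.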 Active and inactive are the calls of the source. Cut-off read from the data, not from the text of the source: active = GI50 up to about 1.1 µM and inactive = higher.

Columns and labels:
Experiment in all cases: NCI anticancer screen, dose series, 48 h
MDA-N = tested on: MDA-N
IGROV-1 = tested on: IGROV-1
LOX IMVI = tested on: LOX IMVI
RPMI-8226 = tested on: RPMI-8226
MDA-MB-435 = tested on: MDA-MB-435
UO-31 = tested on: UO-31
COLO 205 = tested on: COLO 205
OVCAR-5 = tested on: OVCAR-5
A549 = tested on: A549
HOP-62 = tested on: HOP-62
PC-3 = tested on: PC-3
SF-268 = tested on: SF-268
A498 = tested on: A498
786-0 = tested on: 786-0
U-251 = tested on: U-251
SK-MEL-5 = tested on: SK-MEL-5
RXF 393 = tested on: RXF 393
SN12C = tested on: SN12C
SK-MEL-28 = tested on: SK-MEL-28
SW-620 = tested on: SW-620

SMILES	GI50 (MDA-N)	GI50 (IGROV-1)	GI50 (LOX IMVI)	GI50 (RPMI-8226)	GI50 (MDA-MB-435)	GI50 (UO-31)	GI50 (COLO 205)	GI50 (OVCAR-5)	GI50 (A549)	GI50 (HOP-62)	GI50 (PC-3)	GI50 (SF-268)	GI50 (A498)	GI50 (786-0)	GI50 (U-251)	GI50 (SK-MEL-5)	GI50 (RXF 393)	GI50 (SN12C)	GI50 (SK-MEL-28)	GI50 (SW-620)
c1ccc(/C(=N/Nc2ccccn2)c2cccnn2)cc1	7.57 µM (inactive)	1.79 µM (inactive)	2.07 µM (inactive)	2.17 µM (inactive)	4.73 µM (inactive)	0.885 µM (active)	0.741 µM (active)	7.73 µM (inactive)	2.43 µM (inactive)	2.85 µM (inactive)	5.86 µM (inactive)	0.853 µM (active)	> 25.3 µM (inactive)	1.38 µM (inactive)	4.21 µM (inactive)	2.35 µM (inactive)	15.7 µM (inactive)	2.15 µM (inactive)	> 34.2 µM (inactive)	3.44 µM (inactive)
O=C1N/C(=N/N=C/c2cccs2)N/C1=C\c1ccco1	2.93 µM (inactive)	26.1 µM (inactive)	21.6 µM (inactive)	23.7 µM (inactive)	20.6 µM (inactive)	> 100 µM (inactive)	35.5 µM (inactive)	> 100 µM (inactive)	33.7 µM (inactive)	> 100 µM (inactive)	18.9 µM (inactive)	19.8 µM (inactive)	17.1 µM (inactive)	51.6 µM (inactive)	23.5 µM (inactive)	24.3 µM (inactive)	90.6 µM (inactive)	43.8 µM (inactive)	76.9 µM (inactive)	30.4 µM (inactive)
c1ccc2cc3c(NC4=NCCO4)cccc3cc2c1	1.79 µM (inactive)	60.8 µM (inactive)	29.8 µM (inactive)	39 µM (inactive)	37.1 µM (inactive)	53 µM (inactive)	35.9 µM (inactive)	> 100 µM (inactive)	> 100 µM (inactive)	> 100 µM (inactive)	45.1 µM (inactive)	34.2 µM (inactive)	67.6 µM (inactive)	57 µM (inactive)	> 100 µM (inactive)	35 µM (inactive)	> 100 µM (inactive)	58.5 µM (inactive)	> 100 µM (inactive)	> 100 µM (inactive)
CN(C)CC1CCC(CN(C)C)C(=O)C1=O (stereo not given)	> 10 µM (inactive)	17.6 µM (inactive)	8.63 µM (inactive)	2.52 µM (inactive)	17.8 µM (inactive)	3.48 µM (inactive)	1.79 µM (inactive)	16.5 µM (inactive)	10.9 µM (inactive)	20.1 µM (inactive)	16.7 µM (inactive)	6.75 µM (inactive)	16.8 µM (inactive)	5.14 µM (inactive)	12.7 µM (inactive)	16.3 µM (inactive)	1.82 µM (inactive)	18.4 µM (inactive)	8.87 µM (inactive)	1.83 µM (inactive)
O=C1/C(=C/c2ccccc2)CCc2ccccc21	16.2 µM (inactive)	21.4 µM (inactive)	16.8 µM (inactive)	3.11 µM (inactive)	14.8 µM (inactive)	14.6 µM (inactive)	19.6 µM (inactive)	16.8 µM (inactive)	22.7 µM (inactive)	15.7 µM (inactive)	19 µM (inactive)	19.7 µM (inactive)	16.9 µM (inactive)	17.5 µM (inactive)	16.2 µM (inactive)	17.7 µM (inactive)	15.2 µM (inactive)	21.9 µM (inactive)	19 µM (inactive)	13.9 µM (inactive)
CC1=NN(C(=O)c2ccccc2O)C(=O)/C1=C/c1cccc([N+](=O)[O-])c1	0.608 µM (active)	0.384 µM (active)	0.695 µM (active)	13.3 µM (inactive)	0.451 µM (active)	0.596 µM (active)	29 µM (inactive)	10.4 µM (inactive)	0.448 µM (active)	1.23 µM (inactive)	7.06 µM (inactive)	1.25 µM (inactive)	0.164 µM (active)	2.47 µM (inactive)	0.512 µM (active)	2.57 µM (inactive)	0.189 µM (active)	3.01 µM (inactive)	> 49.7 µM (inactive)	3.44 µM (inactive)
CC(=O)O[C@H]1C(=O)[C@@]2(C)[C@H]([C@H](OC(=O)c3ccccc3)[C@]3(O)C[C@H](OC(=O)[C@H](O)[C@@H](NC(=O)c4ccccc4)c4ccc5ccccc5c4)C(C)=C1C3(C)C)[C@]1(OC(C)=O)CO[C@@H]1C[C@@H]2O	0.0101 µM (active)	0.0467 µM (active)	0.0887 µM (active)	0.0229 µM (active)	0.00993 µM (active)	2.39 µM (inactive)	0.0787 µM (active)	0.153 µM (active)	0.0998 µM (active)	0.0506 µM (active)	0.0553 µM (active)	0.0239 µM (active)	0.467 µM (active)	0.153 µM (active)	0.0692 µM (active)	0.0685 µM (active)	0.219 µM (active)	0.0681 µM (active)	0.132 µM (active)	0.0306 µM (active)
